Data from patent US20060069132A1, “Azolecarboxamide herbicides” (priority 2004, published 2006).

Assays:
[1] = system: large crabgrass; assay: Test A pre-/postemergence herbicide test; assay type: in vivo, Digitaria sanguinalis; conditions: for Plant response rating, Crabgrass, Large: Postemergence; for Crabgrass, Large plant response rating: Preemergence
How it was run: (§1)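 Visual injury rating on a 0–100 scale (0 no effect, 100 complete control) versus untreated controls, about ten days after treatment in greenhouse. Pre: directed soil spray onto seeded sandy loam. Post: spray to runoff on plants 2–10 cm tall at one- to two-leaf stage.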

[2] = system: giant foxtail; assay: Test A pre-/postemergence herbicide test; assay type: in vivo, Setaria faberi; conditions: for Plant response rating, Foxtail, Giant: Postemergence; for Foxtail, Giant plant response rating: Preemergence
How it was run: as §1

[3] = system: morningglory; assay: Test A pre-/postemergence herbicide test; assay type: in vivo, Ipomoea spp.; conditions: for Plant response rating, Morningglory: Postemergence; for Morningglory plant response rating: Preemergence
How it was run: as §1

[4] = system: bermudagrass; assay: Test C pre-/postemergence herbicide test; assay type: in vivo, Cynodon dactylon; conditions: preemergence
How it was run: (§2)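 Pre- and postemergence application, solvent/surfactant formulation; post at 1- to 4-leaf stage (2–18 cm). Greenhouse 12–14 d. Visual rating vs controls, 0 = no effect, 100 = complete control.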

[5] = system: Surinam grass; assay: Test C pre-/postemergence herbicide test; assay type: in vivo, Urochloa decumbens; conditions: preemergence
How it was run: as §2

[6] = system: corn; assay: Test C pre-/postemergence herbicide test; assay type: in vivo, Zea mays; conditions: preemergence; for Plant response rating, Corn: visual, 12 to 14 days
How it was run: as §2

[7] = system: goosegrass; assay: Test C pre-/postemergence herbicide test; assay type: in vivo, Eleusine indica; conditions: preemergence
How it was run: as §2

[8] = system: johnsongrass; assay: Test C pre-/postemergence herbicide test; assay type: in vivo, Sorghum halepense; conditions: preemergence
How it was run: as §2

[9] = system: morningglory; assay: Test C pre-/postemergence herbicide test; assay type: in vivo, Ipomoea coccinea; parameters: key to Plant response rating, Morningglory: 0 = no effect, 100 = complete control; conditions: preemergence
How it was run: as §2

[10] = system: common ragweed; assay: Test C pre-/postemergence herbicide test; assay type: in vivo, Ambrosia elatior; parameters: key to Plant response rating, Ragweed: 0 = no effect, 100 = complete control; conditions: preemergence
How it was run: as §2

[11] = system: velvetleaf; assay: Test C pre-/postemergence herbicide test; assay type: in vivo, Abutilon theophrasti; conditions: preemergence
How it was run: as §2

[12] = 500 g ai/ha, 0 to 100 scale, 0 no effect, 100 complete control
[13] = 2000 g ai/ha, 0 to 100 scale, 0 no effect, 100 complete control
[14] = 500 g ai/ha, visual rating, 0 to 100 scale (0 no effect, 100 complete control)
[15] = 125 g ai/ha, scale 0 (no effect) to 100 (complete control), visual, 12 to 14 days
[16] = 250 g ai/ha, scale 0 to 100 (0 no effect, 100 complete control), visual, 12 to 14 days

CCCCn1nc(C(C)(C)C)cc1C(=O)Nc1cccc(C(=O)NCC)c1 [Compound 41]
50: Plant response rating, Bermudagrass [4, 15]
70: Foxtail, Giant plant response rating [2, 13]
80: Crabgrass, Large plant response rating [1, 13]
10: Plant response rating, Morningglory [3, 12] | Plant response rating, Morningglory [3, 13] | Plant response rating, Surinam Grass ([5]; 31 g ai/ha, scale 0 to 100) | Plant response rating, Goosegrass ([7]; 31 g ai/ha, scale 0 to 100) | Plant response rating, Ragweed [10, 16]
35: Plant response rating, Foxtail, Giant [2, 13]
60: Plant response rating, Crabgrass, Large [1, 13]
30: Foxtail, Giant plant response rating [2, 14] | Plant response rating, Bermudagrass ([4]; 31 g ai/ha, scale 0 to 100) | Plant response rating (0 = no effect, 100 = complete control), Bermudagrass ([4]; 62 g ai/ha) | Plant response rating, Goosegrass [7, 15]
40: Crabgrass, Large plant response rating [1, 14] | Plant response rating, Goosegrass [7, 16] | Plant response rating (0 = no effect, 100 = complete control), Velvetleaf ([11]; 62 g ai/ha) | Plant response rating, Velvetleaf [11, 15]
0: Plant response rating (0 = no effect, 100 = complete control), Corn ([6]; 62 g ai/ha) | Plant response rating, Corn ([6]; 125 g ai/ha, scale 0 (no effect) to 100 (complete control)) | Plant response rating, Corn ([6]; 250 g ai/ha, scale 0 to 100 (0 no effect, 100 complete control)) | Plant response rating, Johnsongrass ([8]; 31 g ai/ha, scale 0 to 100) | Plant response rating (0 = no effect, 100 = complete control), Johnsongrass ([8]; 62 g ai/ha) | Plant response rating, Morningglory ([9]; 31 g ai/ha, scale 0 to 100) | Plant response rating (0 = no effect, 100 = complete control), Morningglory ([9]; 62 g ai/ha) | Plant response rating, Morningglory [9, 15] | Plant response rating, Ragweed ([10]; 31 g ai/ha, scale 0 to 100) | Plant response rating (0 = no effect, 100 = complete control), Ragweed ([10]; 62 g ai/ha) | Plant response rating, Ragweed [10, 15] | Plant response rating, Velvetleaf ([11]; 31 g ai/ha, scale 0 to 100)
20: Plant response rating, Crabgrass, Large [1, 12] | Plant response rating, Foxtail, Giant [2, 12] | Morningglory plant response rating [3, 14] | Plant response rating (0 = no effect, 100 = complete control), Surinam Grass ([5]; 62 g ai/ha) | Plant response rating, Surinam Grass [5, 15] | Plant response rating, Surinam Grass [5, 16] | Plant response rating (0 = no effect, 100 = complete control), Goosegrass ([7]; 62 g ai/ha) | Plant response rating, Johnsongrass [8, 16] | Plant response rating, Morningglory [9, 16]
45: Morningglory plant response rating [3, 13]
100: Plant response rating, Bermudagrass [4, 16] | Plant response rating, Velvetleaf [11, 16]
